Measured values: the CombiSolv-Exp solvation set (Vermeire and Green 2021)
Blank lines part the entries; values can stand above or below the molecule they belong to.

Assay: solvent given as SMILES

Structure (SMILES): CCCCCCCCCCCCCCCCCCCCCCCCC
solvation free energy, 298 K (in CC(=O)N(C)C): -17.1 kcal/mol | solvation free energy, 298 K (in CC(C)(C)O): -15.3 kcal/mol | solvation free energy, 298 K (in CN(C)C=O): -17.1 kcal/mol | solvation free energy, 298 K (in COC(C)(C)C): -17.1 kcal/mol | solvation free energy, 298 K (in O): 5.39 kcal/mol

Structure (SMILES): C1CCNCC1
solvation free energy, 298 K (in C1CCOC1): -5.22 kcal/mol | solvation free energy, 298 K (in C1COCCO1): -4.95 kcal/mol | solvation free energy, 298 K (in COC(C)(C)C): -4.87 kcal/mol | solvation free energy, 298 K (in O): -5.11 kcal/mol

Structure (SMILES): CCC(C)(C)O
solvation free energy, 298 K (in CC(=O)CC(C)=O): -5.07 kcal/mol | solvation free energy, 298 K (in CCCCCCC): -3.85 kcal/mol | solvation free energy, 298 K (in CCCCCCCC): -3.99 kcal/mol | solvation free energy, 298 K (in CCCCCCCCCC): -3.99 kcal/mol | solvation free energy, 298 K (in O): -4.43 kcal/mol

Structure (SMILES): Cc1ccc2ccccc2c1
solvation free energy, 298 K (in O): -2.18 kcal/mol

Structure (SMILES): C=CCCCCCCC
solvation free energy, 298 K (in CCCCCCCCO): -5.21 kcal/mol | solvation free energy, 298 K (in O): 2.06 kcal/mol

Structure (SMILES): Oc1ccc(I)cc1
solvation free energy, 298 K (in O): -7.61 kcal/mol

Structure (SMILES): O=C(c1ccccc1)N(O)c1cccc(Cl)c1
solvation free energy, 298 K (in O): -10.9 kcal/mol

Structure (SMILES): CN(Cc1ccccc1)N=O
solvation free energy, 298 K (in O): -7.03 kcal/mol

Structure (SMILES): NCCc1ccccc1
solvation free energy, 298 K (in C=CCCCCCCC=C): -7.41 kcal/mol | solvation free energy, 298 K (in O): -6.56 kcal/mol

Structure (SMILES): CCCCNCc1ccc(C)cc1
solvation free energy, 298 K (in O): -5.47 kcal/mol

Structure (SMILES): CCC(C)C
solvation free energy, 298 K (in C1=Cc2ccccc2C1): -2.54 kcal/mol | solvation free energy, 298 K (in C=CCCCCCCCCCCCCCC): -2.66 kcal/mol | solvation free energy, 298 K (in CC#N): -1.9 kcal/mol | solvation free energy, 298 K (in CC(=O)N(C)C): -1.98 kcal/mol | solvation free energy, 298 K (in CC(C)(C)O): -2.56 kcal/mol | solvation free energy, 298 K (in CCCCCCCCCCCCCCCC): -2.76 kcal/mol | solvation free energy, 298 K (in CCCCCCCCCOC(=O)c1ccccc1C(=O)OCCCCCCCCC): -2.36 kcal/mol | solvation free energy, 298 K (in CCNC(C)=O): -2.22 kcal/mol | solvation free energy, 298 K (in CN1CCCC1=O): -1.8 kcal/mol | solvation free energy, 298 K (in CN1CCCCC1=O): -2.01 kcal/mol | solvation free energy, 298 K (in CN(C)C=O): -1.9 kcal/mol | solvation free energy, 298 K (in CN(C)P(=O)(N(C)C)N(C)C): -2 kcal/mol | solvation free energy, 298 K (in CNC(C)=O): -2.03 kcal/mol | solvation free energy, 298 K (in CNC=O): -1.57 kcal/mol | solvation free energy, 298 K (in ClC(Cl)C(Cl)Cl): -2.38 kcal/mol | solvation free energy, 298 K (in Clc1cccc2ccccc12): -2.24 kcal/mol | solvation free energy, 298 K (in Ic1ccccc1): -2.37 kcal/mol | solvation free energy, 298 K (in N#CCCCCC#N): -1.06 kcal/mol | solvation free energy, 298 K (in N#CCc1ccccc1): -1.78 kcal/mol | solvation free energy, 298 K (in N#Cc1ccccc1): -2.21 kcal/mol | solvation free energy, 298 K (in O): 2.39 kcal/mol | solvation free energy, 298 K (in O=C1CCCCC1): -2.58 kcal/mol

Structure (SMILES): Clc1cc(Cl)c(-c2cc(Cl)c(Cl)cc2Cl)cc1Cl
solvation free energy, 298 K (in CCCCCCCCO): -12.9 kcal/mol | solvation free energy, 298 K (in O): -3.1 kcal/mol

Structure (SMILES): OCCOCCOCCO
solvation free energy, 298 K (in CCCCCCC): -7.04 kcal/mol

Structure (SMILES): Cc1ccc(C)cc1
solvation free energy, 298 K (in CC#N): -5.16 kcal/mol | solvation free energy, 298 K (in CC(C)CC(C)(C)C): -5.39 kcal/mol | solvation free energy, 298 K (in CC(C)CO): -4.94 kcal/mol | solvation free energy, 298 K (in CC(O)CO): -4.14 kcal/mol | solvation free energy, 298 K (in CCCCCCC): -5.45 kcal/mol | solvation free energy, 298 K (in CCCCCCCCCCCCCCCC): -5.27 kcal/mol | solvation free energy, 298 K (in CCCCCCCCO): -5.17 kcal/mol | solvation free energy, 298 K (in CCCCOC(C)=O): -6.1 kcal/mol | solvation free energy, 298 K (in CCO): -5.09 kcal/mol | solvation free energy, 298 K (in CNC=O): -4.8 kcal/mol | solvation free energy, 298 K (in COCCO): -5.06 kcal/mol | solvation free energy, 298 K (in ClC(Cl)(Cl)Cl): -5.73 kcal/mol | solvation free energy, 298 K (in ClCCCl): -5.96 kcal/mol | solvation free energy, 298 K (in NC=O): -3.27 kcal/mol | solvation free energy, 298 K (in NCCO): -3.84 kcal/mol | solvation free energy, 298 K (in O): -0.75 kcal/mol | solvation free energy, 298 K (in O=CN1CCOCC1): -4.98 kcal/mol | solvation free energy, 298 K (in OCCO): -3.4 kcal/mol | solvation free energy, 298 K (in OCCOCCO): -4.23 kcal/mol | solvation free energy, 298 K (in OCCOCCOCCO): -4.37 kcal/mol

Structure (SMILES): CSc1nc(N=[N+]=[N-])nc(NC(C)C)n1
solvation free energy, 298 K (in O): -8.19 kcal/mol

Structure (SMILES): Clc1cc(Cl)c2c(c1Cl)Oc1ccccc1O2
solvation free energy, 298 K (in O): -4.05 kcal/mol

Structure (SMILES): CCCCCCCCCC(C)=O
solvation free energy, 298 K (in O): -2.15 kcal/mol

Structure (SMILES): CCN(N=O)C(C)C
solvation free energy, 298 K (in O): -5.46 kcal/mol

Structure (SMILES): C=CCCC
solvation free energy, 298 K (in C=CCCCCCCCCCCCCCC): -2.77 kcal/mol | solvation free energy, 298 K (in CC#N): -2.5 kcal/mol | solvation free energy, 298 K (in CC(=O)N(C)C): -2.35 kcal/mol | solvation free energy, 298 K (in CCC#N): -2.86 kcal/mol | solvation free energy, 298 K (in CCC(C)=O): -2.88 kcal/mol | solvation free energy, 298 K (in CCCC#N): -2.56 kcal/mol | solvation free energy, 298 K (in CCCCC(CC)COC(=O)CCCCC(=O)OCC(CC)CCCC): -2.66 kcal/mol | solvation free energy, 298 K (in CCCCCCC): -3.15 kcal/mol | solvation free energy, 298 K (in CCCCCCCC): -3.1 kcal/mol | solvation free energy, 298 K (in CCCCCCCCO): -2.63 kcal/mol | solvation free energy, 298 K (in CCCCO): -2.65 kcal/mol | solvation free energy, 298 K (in CCCCOC(=O)c1ccccc1C(=O)OCCCC): -2.7 kcal/mol | solvation free energy, 298 K (in CCN1CCCC1=O): -2.46 kcal/mol | solvation free energy, 298 K (in CCN(CC)C(C)=O): -2.62 kcal/mol | solvation free energy, 298 K (in CCNC(C)=O): -2.46 kcal/mol | solvation free energy, 298 K (in CCNC=O): -2.26 kcal/mol | solvation free energy, 298 K (in CCOC(=O)c1ccccc1C(=O)OCC): -2.33 kcal/mol | solvation free energy, 298 K (in CCOC(C)=O): -2.96 kcal/mol | solvation free energy, 298 K (in CN1CCCC1=O): -2.25 kcal/mol | solvation free energy, 298 K (in CN1CCCCC1=O): -2.41 kcal/mol | solvation free energy, 298 K (in CN(C)C=O): -2.32 kcal/mol | solvation free energy, 298 K (in CNC(C)=O): -2.22 kcal/mol | solvation free energy, 298 K (in CNC=O): -1.98 kcal/mol | solvation free energy, 298 K (in COC(C)=O): -2.88 kcal/mol | solvation free energy, 298 K (in Cc1ccc(C)cc1): -3.11 kcal/mol | solvation free energy, 298 K (in ClCCCl): -2.86 kcal/mol | solvation free energy, 298 K (in Clc1ccccc1): -3.01 kcal/mol | solvation free energy, 298 K (in N#Cc1ccccc1): -2.61 kcal/mol | solvation free energy, 298 K (in O): 1.68 kcal/mol | solvation free energy, 298 K (in O=C1CCCCC1): -2.77 kcal/mol | solvation free energy, 298 K (in O=C1CCCO1): -1.95 kcal/mol | solvation free energy, 298 K (in O=CN1CCOCC1): -1.84 kcal/mol | solvation free energy, 298 K (in OCCOCCO): -1.23 kcal/mol

More lines, now with the values ahead:

solvation free energy, 298 K (in O): -5.56 kcal/mol
Structure (SMILES): C1CNC1

solvation free energy, 298 K (in O): -18.9 kcal/mol
Structure (SMILES): COc1cc(NS(=O)(=O)c2ccc(N)cc2)nc(OC)n1

solvation free energy, 298 K (in CCCCCC): -6.16 kcal/mol
Structure (SMILES): ON=C1CCCCC1

solvation free energy, 298 K (in CCCCCCCC): -5.29 kcal/mol | solvation free energy, 298 K (in CCCCCCCCCC): -5.22 kcal/mol
Structure (SMILES): CCCCC(C)(C)O

solvation free energy, 298 K (in CCCCCCCC): -5.34 kcal/mol | solvation free energy, 298 K (in CCCCCCCCCC): -5.46 kcal/mol
Structure (SMILES): CCCC(O)C(C)C (configuration not stated)

solvation free energy, 298 K (in C1COCCO1): -11.8 kcal/mol | solvation free energy, 298 K (in O): -9.79 kcal/mol
Structure (SMILES): CC(=O)Nc1ccccc1

solvation free energy, 298 K (in O): -8.76 kcal/mol
Structure (SMILES): COc1cc(C=O)ccc1O

solvation free energy, 298 K (in O): -0.01 kcal/mol
Structure (SMILES): C=C(C)C1CCC(C)C2=C(C1)C(C)CC2 (configuration not stated)

solvation free energy, 298 K (in O): -2.01 kcal/mol
Structure (SMILES): COC(C)C
